What all share (assay): relative viability (nuclei count vs DMSO), 5 days (fraction); higher = more cells survive
Compound in assay [1]: CC1CC(=O)N(C2=CN=C(N=C2N1C3CCCC3)NC4=C(C=C(C=C4)C(=O)NC5CCN(CC5)C)OC)C [NPK76-II-72-1] + CC(=O)c1c(C)c2cnc(Nc3ccc(N4CCNCC4)cn3)nc2n(C2CCCC2)c1=O [Palbociclib] (partner 0.5 µM)
In short, it runs like this: (§1)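 Medians of duplicate plates are given as relative viability. That measure is the nuclei count in treated wells divided by the count in vehicle wells. Counts were taken on 4× images of lung cancer cell lines in 1536-well plates, 5 days after pin-tool dosing the day after seeding with one drug alone or a fixed anchor-drug dose plus five library-drug doses (not always all listed) in √10 steps.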

Compound in the assay “BI-2536 + Pemetrexed”: CC[C@@H]1C(=O)N(C)c2cnc(Nc3ccc(C(=O)NC4CCN(C)CC4)cc3OC)nc2N1C1CCCC1 [BI-2536] + Nc1nc2[nH]cc(CCc3ccc(C(=O)N[C@@H](CCC(=O)O)C(=O)O)cc3)c2c(=O)[nH]1 [Pemetrexed] (partner 0.2 µM)
In short, it runs like this:
as §1

Compound in assay [2]: CC1CC(=O)N(C2=CN=C(N=C2N1C3CCCC3)NC4=C(C=C(C=C4)C(=O)NC5CCN(CC5)C)OC)C [NPK76-II-72-1] + Cc1nc(NC(=O)N2CCC[C@H]2C(N)=O)sc1-c1ccnc(C(C)(C)C(F)(F)F)c1 [Alpelisib] (partner 2 µM)
In short, it runs like this:
as §1

Compound in the assay “BI-2536 + Pictilisib”: CC[C@@H]1C(=O)N(C)c2cnc(Nc3ccc(C(=O)NC4CCN(C)CC4)cc3OC)nc2N1C1CCCC1 [BI-2536] + CS(=O)(=O)N1CCN(Cc2cc3nc(-c4cccc5[nH]ncc45)nc(N4CCOCC4)c3s2)CC1 [Pictilisib] (partner 1 µM)
The method, boiled down:
as §1

In the supplement of paper PMC10307832 one finds relative viability data, which are given here for eight cell lines.

With NCI-H2342, the relative viability in assay [1] (first compound 0.01 µM) was determined as 0.487; in assay [1] (first compound 0.03162 µM), 0.468; in assay [1] (first compound 0.1 µM), 0.47; in assay [1] (first compound 0.3162 µM), 0.508; in assay [1] (first compound 1 µM), 0.541; with BI-2536 + Pemetrexed (first compound 0.03162 µM), 0.724. The figures for the relative viability in the assay with BI-2536 + Pemetrexed (first compound 0.1 µM), with BI-2536 + Pemetrexed (first compound 0.3162 µM) and with BI-2536 + Pemetrexed (first compound 1 µM) were 0.716, 0.373 and 0.42, respectively.

In the case of SK-MES-1, the relative viability in assay [1] (first compound 0.01 µM) turned out to be 0.325; in assay [1] (first compound 0.03162 µM), 0.342; in assay [1] (first compound 0.1 µM), 0.26; in assay [1] (first compound 0.3162 µM), 0.313; in assay [1] (first compound 1 µM) it was 0.385; in assay [2] (first compound 0.01 µM), 0.835. Further, the relative viability in assay [2] (first compound 0.03162 µM) worked out at 0.847; in assay [2] (first compound 0.1 µM), 0.868; in assay [2] (first compound 0.3162 µM), 0.907; in assay [2] (first compound 1 µM), 0.883; in the assay with BI-2536 + Pictilisib (first compound 0.01 µM) it was 0.357; with BI-2536 + Pictilisib (first compound 0.03162 µM), 0.374. Besides, the relative viability in the assay with BI-2536 + Pictilisib (first compound 0.1 µM) turned out to be 0.304; in the assay with BI-2536 + Pictilisib (first compound 0.3162 µM) it was 0.157; with BI-2536 + Pictilisib (first compound 1 µM) it was 0.127; in the assay with BI-2536 + Pemetrexed (first compound 0.01 µM), 0.912; with BI-2536 + Pemetrexed (first compound 0.03162 µM), 0.887; with BI-2536 + Pemetrexed (first compound 0.1 µM), 0.66. Further, the relative viability with BI-2536 + Pemetrexed (first compound 0.3162 µM) was found to be 0.205; with BI-2536 + Pemetrexed (first compound 1 µM), 0.197.

As for HCC-366, the relative viability is 0.386 in assay [1] (first compound 0.01 µM); 0.438 in assay [1] (first compound 0.03162 µM); 0.386 in assay [1] (first compound 0.1 µM); 0.363 in assay [1] (first compound 0.3162 µM); 0.458 in assay [1] (first compound 1 µM); 0.401 in assay [2] (first compound 0.01 µM). The relative viability was determined as 0.443 in assay [2] (first compound 0.03162 µM); 0.456 in assay [2] (first compound 0.1 µM); 0.435 in assay [2] (first compound 0.3162 µM); 0.452 in assay [2] (first compound 1 µM); 0.144 with BI-2536 + Pictilisib (first compound 0.01 µM); 0.179 in the assay with BI-2536 + Pictilisib (first compound 0.03162 µM). Besides, the relative viability is 0.0833 with BI-2536 + Pictilisib (first compound 0.1 µM); 0.0304 with BI-2536 + Pictilisib (first compound 0.3162 µM); 0.0488 with BI-2536 + Pictilisib (first compound 1 µM); 0.193 with BI-2536 + Pemetrexed (first compound 0.01 µM); 0.17 with BI-2536 + Pemetrexed (first compound 0.03162 µM); 0.157 in the assay with BI-2536 + Pemetrexed (first compound 0.1 µM). Besides, the results for the relative viability with BI-2536 + Pemetrexed (first compound 0.3162 µM) and in the assay with BI-2536 + Pemetrexed (first compound 1 µM) were 0.024 and 0.0288, respectively.

Regarding 201T, the relative viability in assay [1] (first compound 0.01 µM) came to 0.379; in assay [1] (first compound 0.03162 µM) it was 0.385; in assay [1] (first compound 0.1 µM), 0.348; in assay [1] (first compound 0.3162 µM) it was 0.356; in assay [1] (first compound 1 µM), 0.364; in assay [2] (first compound 0.01 µM) it was 1.02. Also, the relative viability in assay [2] (first compound 0.03162 µM) stood at 1.04; in assay [2] (first compound 0.1 µM), 1.02; in assay [2] (first compound 0.3162 µM) it was 0.999; in assay [2] (first compound 1 µM) it was 1.09; with BI-2536 + Pictilisib (first compound 0.01 µM), 0.686; in the assay with BI-2536 + Pictilisib (first compound 0.03162 µM) it was 0.618. The relative viability stood at 0.586 with BI-2536 + Pictilisib (first compound 0.1 µM); 0.253 with BI-2536 + Pictilisib (first compound 0.3162 µM); 0.308 in the assay with BI-2536 + Pictilisib (first compound 1 µM); 0.362 in the assay with BI-2536 + Pemetrexed (first compound 0.01 µM); 0.302 in the assay with BI-2536 + Pemetrexed (first compound 0.03162 µM); 0.298 with BI-2536 + Pemetrexed (first compound 0.1 µM). Also, the relative viability with BI-2536 + Pemetrexed (first compound 0.3162 µM) came to 0.208; with BI-2536 + Pemetrexed (first compound 1 µM), 0.224.

HCC-827: the relative viability in assay [1] (first compound 0.01 µM) stood at 0.474; in assay [1] (first compound 0.03162 µM), 0.457; in assay [1] (first compound 0.1 µM) it was 0.488; in assay [1] (first compound 0.3162 µM) it was 0.491; in assay [1] (first compound 1 µM), 0.561; in assay [2] (first compound 0.01 µM) it was 0.942. Further, the relative viability was found to be 0.931 in assay [2] (first compound 0.03162 µM); 0.988 in assay [2] (first compound 0.1 µM); 1.02 in assay [2] (first compound 0.3162 µM); 1.09 in assay [2] (first compound 1 µM); 0.917 with BI-2536 + Pictilisib (first compound 0.01 µM); 1.02 with BI-2536 + Pictilisib (first compound 0.03162 µM). In addition, the relative viability worked out at 0.976 with BI-2536 + Pictilisib (first compound 0.1 µM); 0.533 in the assay with BI-2536 + Pictilisib (first compound 0.3162 µM); 0.339 in the assay with BI-2536 + Pictilisib (first compound 1 µM); 0.232 with BI-2536 + Pemetrexed (first compound 0.01 µM); 0.253 with BI-2536 + Pemetrexed (first compound 0.03162 µM); 0.224 with BI-2536 + Pemetrexed (first compound 0.1 µM). For the same cell line, the relative viability came to 0.227 with BI-2536 + Pemetrexed (first compound 0.3162 µM) and 0.187 with BI-2536 + Pemetrexed (first compound 1 µM).

Consider NCI-H647, for which the relative viability in assay [1] (first compound 0.01 µM) worked out at 0.31; in assay [1] (first compound 0.03162 µM), 0.351; in assay [1] (first compound 0.1 µM), 0.424; in assay [1] (first compound 0.3162 µM), 0.362; in assay [1] (first compound 1 µM), 0.506; in assay [2] (first compound 0.01 µM), 0.985. Besides, the relative viability stood at 1.28 in assay [2] (first compound 0.03162 µM); 1.02 in assay [2] (first compound 0.3162 µM); 1.18 in assay [2] (first compound 1 µM); 0.396 with BI-2536 + Pictilisib (first compound 0.01 µM); 0.376 with BI-2536 + Pictilisib (first compound 0.03162 µM); 0.129 in the assay with BI-2536 + Pictilisib (first compound 0.1 µM). Further, the relative viability with BI-2536 + Pictilisib (first compound 0.3162 µM) came out at 0.0762; with BI-2536 + Pictilisib (first compound 1 µM) it was 0.0954; with BI-2536 + Pemetrexed (first compound 0.01 µM), 0.179; with BI-2536 + Pemetrexed (first compound 0.03162 µM), 0.148; in the assay with BI-2536 + Pemetrexed (first compound 0.1 µM), 0.113; with BI-2536 + Pemetrexed (first compound 0.3162 µM), 0.0907. In the assay with BI-2536 + Pemetrexed (first compound 1 µM), the relative viability is 0.0929.

For NCI-H2023, the relative viability in assay [1] (first compound 0.01 µM) was determined as 0.365; in assay [1] (first compound 0.03162 µM), 0.385; in assay [1] (first compound 0.1 µM) it was 0.343; in assay [1] (first compound 0.3162 µM) it was 0.341; in assay [1] (first compound 1 µM), 0.439; in assay [2] (first compound 0.01 µM) it was 0.568. In addition, the relative viability is 0.691 in assay [2] (first compound 0.03162 µM); 0.592 in assay [2] (first compound 0.1 µM); 0.529 in assay [2] (first compound 0.3162 µM); 0.548 in assay [2] (first compound 1 µM); 0.218 in the assay with BI-2536 + Pictilisib (first compound 0.01 µM); 0.211 with BI-2536 + Pictilisib (first compound 0.03162 µM). For the same cell line, the relative viability with BI-2536 + Pictilisib (first compound 0.1 µM) is 0.091; with BI-2536 + Pictilisib (first compound 0.3162 µM), 0.0927; in the assay with BI-2536 + Pictilisib (first compound 1 µM), 0.094; with BI-2536 + Pemetrexed (first compound 0.01 µM) it was 0.225; in the assay with BI-2536 + Pemetrexed (first compound 0.03162 µM), 0.197; with BI-2536 + Pemetrexed (first compound 0.1 µM), 0.124. Moreover, the relative viability with BI-2536 + Pemetrexed (first compound 0.3162 µM) was 0.0926; with BI-2536 + Pemetrexed (first compound 1 µM) it was 0.0873.

Turning to NCI-H520, the relative viability in assay [1] (first compound 0.01 µM) turned out to be 0.235; in assay [1] (first compound 0.03162 µM), 0.24; in assay [1] (first compound 0.1 µM) it was 0.267; in assay [1] (first compound 0.3162 µM), 0.26; in assay [1] (first compound 1 µM), 0.247; in assay [2] (first compound 0.01 µM), 0.918. Further, the relative viability in assay [2] (first compound 0.03162 µM) was 1.03; in assay [2] (first compound 0.1 µM), 0.909; in assay [2] (first compound 0.3162 µM), 0.859; in assay [2] (first compound 1 µM), 0.829; with BI-2536 + Pictilisib (first compound 0.01 µM), 0.287; in the assay with BI-2536 + Pictilisib (first compound 0.03162 µM) it was 0.232. Also, the relative viability came to 0.268 with BI-2536 + Pictilisib (first compound 0.1 µM); 0.172 with BI-2536 + Pictilisib (first compound 0.3162 µM); 0.162 with BI-2536 + Pictilisib (first compound 1 µM); 0.666 with BI-2536 + Pemetrexed (first compound 0.01 µM); 0.32 in the assay with BI-2536 + Pemetrexed (first compound 0.03162 µM); 0.204 with BI-2536 + Pemetrexed (first compound 0.1 µM). The relative viability was 0.179 with BI-2536 + Pemetrexed (first compound 0.3162 µM) and 0.189 with BI-2536 + Pemetrexed (first compound 1 µM).
